Consider 22 compounds from patent US6987092B1, “Indigoid bisindole derivatives” (Faustus Forschungs Cie. Translational Cancer Research GmbH, priority 1999, dated 2006).

What all share (assay type): cell-based
The subject of one series is LXFL-529L cells. The series is described as follows: Cellular uptake by LXFL-529L cells. The conditions noted are these: 2 hours; for distribution particular: cellular organelles. How it is done:
The amounts of the substances which were taken up by the cells are given depending on the concentration of the substance within the incubation medium. The time of incubation was 2 hours in all of the experiments. Furthermore, distribution between cytosol and the cellular organelles (particular) was measured and is given in the last two columns of Table 3.

Series [1] concerns cells of the large-cell lung carcinoma of the tumor line LXFL-529L. In words: Tumor cell growth inhibition, SRB-assay, LXFL-529L. As to conditions: 50% growth inhibition, three days incubation in serum-containing medium. Background: The SRB assay estimates cell density from bound dye.
The test system of series [2] is cells of the mammary carcinoma cell line MCF-7. The series is described as follows: Tumor cell growth inhibition, SRB-assay, MCF-7. The conditions noted are these: 50% growth inhibition, three days incubation in serum-containing medium.
Where [3] appears, read: concentration of incubation 10 μM.
[4] abbreviates: concentration of incubation 20 μM.
[5] abbreviates: concentration of incubation 50 μM.

The term IC50 denotes the point on the concentration scale where inhibition reaches its midpoint. Low readings indicate inhibition by little substance, high ones a need for much substance. Turning to “3-{3′-[iminooxy-O-(2-D-glucopyranosylethyl)]-(2′H3′H)indol-2′-ylidene}-(2H3H)indol-2-one [Example 48]”, the distribution particular in the series on LXFL-529L cells (setting [3]) is 87 ± 7%; with LXFL-529L cells (setting [4]) it was 95 ± 6%. For the same compound, the amount taken up is reported as 0.20 ± 0.05 μg/mg protein in the series on LXFL-529L cells (setting [3]) and 0.25 ± 0.04 μg/mg protein with LXFL-529L cells (setting [4]). In addition, the distribution cytosol with LXFL-529L cells (setting [3]) was determined as 13 ± 3%; with LXFL-529L cells (setting [4]) it was 5 ± 1%. In addition, the values for the IC50 in series [1] and in series [2] were 21 ± 1.5 µM and 3.5 ± 0.6 µM, respectively.
In the series on LXFL-529L cells (setting [3]), `CCc1ccc2c(c1)/C(=C1/Nc3ccccc3C1=O)C(=O)N2` [Example 2, 5-ethyl-indirubin] showed a distribution particular of 90 ± 6%, an amount taken up of 0.20 ± 0.05 μg/mg protein and a distribution cytosol of 10 ± 2%. In the series on LXFL-529L cells (setting [4]), this compound returned a distribution particular of 95 ± 3%, an amount taken up of 0.22 ± 0.07 μg/mg protein and a distribution cytosol of 5 ± 2%. This compound also came in with an IC50 in series [1] of 7 ± 0.2 µM. Further, inhibition in series [2] was half-maximal at 7 ± 0.2 µM (IC50).
In the series on LXFL-529L cells (setting [3]), `Nc1ccc2c(c1)C(=C1Nc3ccccc3C1=O)C(=O)N2` [Example 15, 5-amino-indirubin] came in with a distribution particular of 85 ± 4%, an amount taken up of 0.25 ± 0.04 μg/mg protein and a distribution cytosol of 15 ± 2%. In the series on LXFL-529L cells (setting [4]), this compound gave a distribution particular of 94 ± 4%, an amount taken up of 0.29 ± 0.05 μg/mg protein and a distribution cytosol of 6 ± 1%. Moreover, the IC50 in series [1] was 8 ± 0.7 µM. This compound also displayed an IC50 in series [2] of 5 ± 0.5 µM.
In the case of `Cc1ccc2c(c1)C(=C1Nc3ccccc3C1=NO)C(=O)N2` [Example 25, 5-methyl-indirubin-3′-monooxime], the distribution particular was 80 ± 5% in the series with LXFL-529L cells (setting [3]), 84 ± 4% with LXFL-529L cells (setting [4]) and 90 ± 8% with LXFL-529L cells (setting [5]). Moreover, the amount taken up is 0.12 ± 0.03 μg/mg protein in the series on LXFL-529L cells (setting [3]), 0.15 ± 0.04 μg/mg protein with LXFL-529L cells (setting [4]) and 0.18 ± 0.06 μg/mg protein with LXFL-529L cells (setting [5]). The distribution cytosol with LXFL-529L cells (setting [3]) was 20 ± 4%; in the series on LXFL-529L cells (setting [4]), 16 ± 3%; with LXFL-529L cells (setting [5]), 10 ± 4%. Besides, the values for the IC50 in series [1] and in series [2] were 6 ± 0.8 µM and 6 ± 0.9 µM, respectively.
Turning to `CCc1ccc2c(c1)C(=C1Nc3ccccc3C1=NO)C(=O)N2` [Example 26, 5-ethyl-indirubin-3′-monooxime], the distribution particular in the series on LXFL-529L cells (setting [3]) was found to be 82 ± 6%; with LXFL-529L cells (setting [4]), 89 ± 5%. The amount taken up in the series on LXFL-529L cells (setting [3]) stood at 0.10 ± 0.03 μg/mg protein; with LXFL-529L cells (setting [4]), 0.13 ± 0.05 μg/mg protein. The distribution cytosol was 18 ± 3% in the series on LXFL-529L cells (setting [3]) and 11 ± 3% in the series with LXFL-529L cells (setting [4]). For the same compound, the results for the IC50 in series [1] and in series [2] were 6 ± 0.6 µM and 7 ± 0.9 µM, respectively.
Consider `Nc1ccc2c(c1)C(=C1Nc3ccccc3C1=NO)C(=O)N2` [Example 28, 5-amino-indirubin-3′-monooxime], for which, in the series with LXFL-529L cells (setting [3]), the distribution particular was 90 ± 6%, the amount taken up is 0.20 ± 0.06 μg/mg protein and the distribution cytosol is on record as 10 ± 2%. In the series on LXFL-529L cells (setting [4]), this compound registered a distribution particular of 94 ± 5%, an amount taken up of 0.23 ± 0.05 μg/mg protein and a distribution cytosol of 90 ± 6%. Moreover, half-maximal inhibition in series [1] (IC50) was put at 7.5 ± 0.4 µM. Moreover, in series [2], the IC50 worked out at 5 ± 0.8 µM.
Consider `O=C1Nc2ccccc2C1=C1Nc2ccccc2C1=NOCCO` [Example 31], for which the results for the distribution particular with LXFL-529L cells (setting [3]) and in the series on LXFL-529L cells (setting [4]) were 93 ± 7% and 93 ± 6%, respectively. The amount taken up amounted to 0.27 ± 0.06 μg/mg protein with LXFL-529L cells (setting [3]) and 0.31 ± 0.07 μg/mg protein in the series on LXFL-529L cells (setting [4]). The distribution cytosol in the series with LXFL-529L cells (setting [3]) came out at 7 ± 1%; in the series with LXFL-529L cells (setting [4]), 7 ± 2%. Further, the IC50 in series [1] was found to be 1.5 ± 0.4 µM; in series [2] it was 2.5 ± 0.4 µM.
For `CCOC(=O)ON=C1C(=C2C(=O)Nc3ccccc32)Nc2ccccc21` [Example 39, 3-[3′-(iminooxy-O-carbethoxy)-(2′H3′H)indol-2′-ylidene]-(2H3H)indol-2-one], the IC50 in series [1] was 4.5 ± 0.7 µM; in series [2], 10 ± 0.9 µM.
The matching figures for `CCOC(=O)CON=C1C(=C2C(=O)Nc3ccccc32)Nc2ccccc21` [Example 40, ethyl-2{O-[2′-(2-oxo-(2H3H)indol-3-ylidene)-(2′H3′H)indol-3′-ylidene]-aminooxy}-acetate]: 6 ± 0.4 µM and 10 ± 0.7 µM.
The matching figures for `CN(C)C(=O)ON=C1C(=C2C(=O)Nc3ccccc32)Nc2ccccc21` [Example 41, 3-{3′-[iminooxy-O-((N,N)-dimethyl-carbamoyl)]-(2′H3′H)indol-2′-ylidene}-(2H3H)indol-2-one]: 5 ± 0.6 µM and 7.5 ± 0.9 µM.
The matching figures for `NC(=O)CON=C1C(=C2C(=O)Nc3ccccc32)Nc2ccccc21` [Example 42, 2-{O-[2′-(2-oxo-(2H3H)indol-3-ylidene)-(2′H3′H)indol-3′-ylidene]-aminooxy}-acetamide]: 2 ± 0.3 µM and 6 ± 0.5 µM.
`CN(C)C(=O)CON=C1C(=C2C(=O)Nc3ccccc32)Nc2ccccc21` [Example 43, N,N-dimethyl-2{O-[2′-(2-oxo-(2H3H)indol-3-ylidene)-(2′H3′H)indol-3′-ylidene]-aminooxy}-acetamide]: the half-inhibitory concentration (IC50) in series [1] was determined as 7 ± 1.1 µM; in series [2] it was 9.2 ± 0.9 µM.
Take `O=C1Nc2ccccc2C1=C1Nc2ccccc2C1=NOCCNC[C@H](O)[C@@H](O)[C@H](O)[C@H](O)CO` [Example 55, 3-{3′-[iminooxy-O-(N-(1-deoxy-glucitol)-2-amino-ethyl)]-(2′H3′H)indol-2′-ylidene}-(2H3H)indol-2-one]: the IC50 in series [1] came out at 3 ± 0.6 µM; in series [2], 3 ± 0.8 µM.
The like results for `O=C1Nc2ccccc2C1=C1Nc2ccccc2C1=NOCCN[C@H]1C(O)O[C@H](CO)[C@@H](O)[C@@H]1O` (some centres unmarked) [Example 56, 3-{3′-[iminooxy-O-(N-(2-deoxy-glucose)-2-amino-ethyl)]-(2′H3′H)indol-2′-ylidene}-(2H3H)indol-2-one] were, in that order, 12 ± 1.3 µM and 14 ± 1.2 µM.
As to `CN(C)CCON=C1C(=C2C(=O)Nc3ccccc32)Nc2ccccc21` [Example 58, 3-{3′-[iminooxy-O-((N,N)-dimethyl-2-amino-ethyl)]-(2′H3′H)indol-2′-ylidene}-(2H3H)indol-2-one], the IC50 was 5 ± 0.9 µM in series [1] and 6.5 ± 1.1 µM in series [2].
The matching figures for `O=C1Nc2ccccc2C1=C1Nc2ccccc2C1=NOCCNCCO` [Example 59, 3-{3′-[iminooxy-O-(N-hydroxyethyl-2-amino-ethyl)]-(2′H3′H)indol-2′-ylidene}-(2H3H)indol-2-one]: 11.6 ± 0.8 µM and 13.6 ± 1.2 µM.
The matching figures for `O=C1Nc2ccccc2C1=C1Nc2ccccc2C1=NOCCN(CCO)CCO` [Example 60, 3-{3′-[iminooxy-O-((N,N)-bis(hydroxyethyl)-2-amino-ethyl)]-(2′H3′H)indol-2′-ylidene}-(2H3H)indol-2-one]: 3 ± 0.4 µM and 4.5 ± 0.5 µM.
Turning to `O=C1Nc2ccccc2C1=C1Nc2ccccc2C1=NOCCCCCCCCCCN(CCO)CCO` [Example 62], the figures for the IC50 in series [1] and in series [2] were 14 ± 1 µM and 13.5 ± 1.3 µM, respectively.
The like results for `O=C1Nc2ccccc2C1=C1Nc2ccccc2C1=NOCCN1CCNCC1` [Example 63, 3-{3′-[iminooxy-O-(2-(piperazin-1-yl)-ethyl)]-(2′H3′H)indol-2′-ylidene}-(2H3H)indol-2-one] were, in that order, 8 ± 0.6 µM and 9.5 ± 0.8 µM.
On to `O=C1Nc2ccccc2C1=C1Nc2ccccc2C1=NOCCN1CCOCC1` [Example 64, 3-{3′-[iminooxy-O-(2-(morpholin-4-yl)-ethyl)]-(2′H3′)indol-2′-ylidene}-(2H3H)indol-2-one], for which the IC50 in series [1] is 10 ± 0.6 µM; in series [2], 9 ± 1.2 µM.
The matching figures for `Cc1ccc2c(c1)C(=C1Nc3ccccc3C1=NOCCO)C(=O)N2` [Example 67, 3-[3′-[iminooxy-O-(2-hydroxy-ethyl)]-(2H′3H′)indol-2′-ylidene]-5-methyl-(2H3H)indol-2-one]: 1 ± 0.5 µM and 1.5 ± 0.6 µM.
The like results for “indirubin-5-sulfonic acid-(morpholin-4-yl-amide) [Example 23]” were, in that order, 4.5 ± 0.8 µM and 3 ± 0.9 µM.
